According to BindingDB's records for doi:10.7270/Q2VT1QQ4 (Burnham Center For Chemical Genomics, 2012):

Molecular target: T1, Xylosyl- and glucuronyltransferase LARGE1 (Homo sapiens, UniProt O95461)
T1 sequence (O95461 whole entry): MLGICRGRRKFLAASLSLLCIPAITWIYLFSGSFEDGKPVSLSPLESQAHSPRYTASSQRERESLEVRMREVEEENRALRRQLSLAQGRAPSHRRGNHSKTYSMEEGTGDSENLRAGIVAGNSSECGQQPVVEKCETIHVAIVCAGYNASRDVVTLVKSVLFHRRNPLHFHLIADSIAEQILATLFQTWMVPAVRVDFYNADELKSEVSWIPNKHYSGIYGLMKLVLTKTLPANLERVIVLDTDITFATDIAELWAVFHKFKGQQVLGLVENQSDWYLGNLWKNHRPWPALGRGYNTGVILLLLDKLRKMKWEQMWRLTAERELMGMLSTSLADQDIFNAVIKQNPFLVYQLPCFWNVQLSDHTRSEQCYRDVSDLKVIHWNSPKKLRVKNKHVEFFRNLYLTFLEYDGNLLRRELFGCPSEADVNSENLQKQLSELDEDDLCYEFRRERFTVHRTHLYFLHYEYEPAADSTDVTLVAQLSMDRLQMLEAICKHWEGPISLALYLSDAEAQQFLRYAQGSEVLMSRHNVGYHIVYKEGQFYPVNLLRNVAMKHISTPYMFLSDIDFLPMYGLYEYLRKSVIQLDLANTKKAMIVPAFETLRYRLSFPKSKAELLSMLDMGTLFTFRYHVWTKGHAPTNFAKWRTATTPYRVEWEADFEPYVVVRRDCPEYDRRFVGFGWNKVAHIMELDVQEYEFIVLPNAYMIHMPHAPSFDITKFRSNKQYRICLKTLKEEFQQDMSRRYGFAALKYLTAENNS

Oc1c(Cl)c(N=Cc2ccco2)c(O)c2ccccc12 [2-chloranyl-3-(furan-2-ylmethylamino)naphthalene-1,4-dione]
EC50: 4.97 µM
